This is an account of results in US20230072683A1, “PYRIDO-PYRIMIDIN DERIVATIVES AND PHARMACEUTICAL COMPOSITION, FOR USE IN PREVENTING OR TREATING PI3 KINASE RELATED DISEASES, COMPRISING SAME AS ACTIVE INGREDIENT” (BORYUNG PHARMACEUTICAL CO., LTD, priority 2019, published 2023).

SMILES strings stand for the structures. Read-outs that look alike come from different tables or passages of the source.

Assay [1] has as its target PI3K-δ (PI3K(p1108/p857) (h)) (Homo sapiens, UniProt O00329). The experiment in a line: Evaluation of inhibitory activity against PI3K-δ (HTRF kinase assay). It counts as biochemical. The conditions noted are these: for inhibition at 0.01 µM: compound concentration 0.01 μM, read-out: EXP_VALUE(% Inhibition) PI3K-δ 0.01 μM; for inhibition at 0.1 µM: read-out: EXP_VALUE(% Inhibition) PI3K-δ 0.1 μM. In a few lines: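 HTRF read-out (665/620 nm ratio ×10000) used Eu-labelled anti-GST, GST-tagged GRP1 PH domain and streptavidin-allophycocyanin after EDTA/PIP3 stop.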
On the technique in general: TR-FRET usually uses a lanthanide donor and a delayed reading to cut background.

For a further assay, the target named is DNA-PK(h) (Homo sapiens, UniProt P78527). Kind of assay: Evaluation of inhibitory activity against DNA-PK (HTRF kinase assay, GST-cMyc-p53 substrate). It counts as biochemical. The conditions noted are these: for inhibition at 0.01 µM: compound concentration 0.01 μM, read-out: EXP_VALUE(% Inhibition) DNA-PK(h) 0.01 μM; for inhibition at 0.1 µM: read-out: EXP_VALUE(% Inhibition) DNA-PK(h) 0.1 μM. In a few lines: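 p53 Ser15 phosphorylation by human DNA-PK was measured by time-resolved FRET ratio (665/620 nm ×10000) using Eu-labelled anti-phospho-Ser15 and d2 anti-GST antibodies. Substrate GST-cMyc-p53 at 50 μM; Mg/ATP-initiated, 30 min at room temperature, EDTA stop.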

Sequence of PI3K-δ (PI3K(p1108/p857) (h)) (O00329 whole entry, the tested form may be a part): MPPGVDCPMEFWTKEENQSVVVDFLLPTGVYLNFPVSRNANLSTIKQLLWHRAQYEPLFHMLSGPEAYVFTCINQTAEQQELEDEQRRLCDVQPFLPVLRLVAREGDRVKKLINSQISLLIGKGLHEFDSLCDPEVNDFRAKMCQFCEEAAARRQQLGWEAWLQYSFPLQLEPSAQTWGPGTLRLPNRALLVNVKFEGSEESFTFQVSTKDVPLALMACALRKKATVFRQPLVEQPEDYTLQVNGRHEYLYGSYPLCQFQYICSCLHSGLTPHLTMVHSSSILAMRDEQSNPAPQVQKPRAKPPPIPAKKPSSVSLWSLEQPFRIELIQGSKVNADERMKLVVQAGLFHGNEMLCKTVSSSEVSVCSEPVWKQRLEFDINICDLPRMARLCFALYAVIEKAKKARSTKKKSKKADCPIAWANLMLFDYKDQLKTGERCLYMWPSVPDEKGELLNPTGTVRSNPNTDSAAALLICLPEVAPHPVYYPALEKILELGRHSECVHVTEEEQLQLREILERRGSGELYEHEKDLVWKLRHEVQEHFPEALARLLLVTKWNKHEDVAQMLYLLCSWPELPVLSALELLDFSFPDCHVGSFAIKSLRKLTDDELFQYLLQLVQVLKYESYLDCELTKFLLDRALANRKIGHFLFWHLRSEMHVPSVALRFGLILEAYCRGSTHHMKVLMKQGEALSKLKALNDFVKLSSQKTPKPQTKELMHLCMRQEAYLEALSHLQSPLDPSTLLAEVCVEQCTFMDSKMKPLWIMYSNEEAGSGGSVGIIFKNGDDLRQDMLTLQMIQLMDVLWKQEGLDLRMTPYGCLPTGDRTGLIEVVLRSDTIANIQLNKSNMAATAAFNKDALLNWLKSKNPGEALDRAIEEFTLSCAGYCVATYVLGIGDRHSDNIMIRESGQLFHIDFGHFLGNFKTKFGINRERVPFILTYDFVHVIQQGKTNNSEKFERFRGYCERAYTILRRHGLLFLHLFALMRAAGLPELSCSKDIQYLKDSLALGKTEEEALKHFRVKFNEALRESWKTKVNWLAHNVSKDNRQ
Sequence of PI3K-δ (PI3K(p1108/p857) (h)) (P27986 whole entry partner, the tested form may be a part): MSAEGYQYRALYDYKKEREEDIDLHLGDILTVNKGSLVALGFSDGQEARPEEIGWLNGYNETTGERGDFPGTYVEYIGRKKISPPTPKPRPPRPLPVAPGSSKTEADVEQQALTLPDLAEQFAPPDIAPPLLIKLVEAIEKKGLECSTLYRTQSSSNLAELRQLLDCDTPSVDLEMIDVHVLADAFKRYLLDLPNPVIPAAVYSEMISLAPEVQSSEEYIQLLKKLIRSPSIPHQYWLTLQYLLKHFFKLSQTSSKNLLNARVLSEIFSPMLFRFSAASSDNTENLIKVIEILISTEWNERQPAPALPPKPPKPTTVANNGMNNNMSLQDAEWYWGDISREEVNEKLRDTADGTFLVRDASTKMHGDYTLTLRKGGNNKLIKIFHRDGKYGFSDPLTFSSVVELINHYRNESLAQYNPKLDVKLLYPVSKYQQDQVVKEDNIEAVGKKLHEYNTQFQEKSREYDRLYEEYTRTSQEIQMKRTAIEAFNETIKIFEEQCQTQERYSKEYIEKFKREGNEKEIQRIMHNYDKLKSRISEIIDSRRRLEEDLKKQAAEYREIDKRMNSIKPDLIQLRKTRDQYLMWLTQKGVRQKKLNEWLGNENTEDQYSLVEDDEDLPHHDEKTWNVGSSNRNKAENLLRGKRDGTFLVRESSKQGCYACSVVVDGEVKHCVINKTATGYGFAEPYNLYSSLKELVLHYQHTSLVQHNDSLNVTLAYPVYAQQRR

In the case of `C[C@H](Nc1ncnc2[nH]ccc(=O)c12)c1c(Cl)c2cccc([C@@H](C)O)c2c(=O)n1-c1ccccc1` [Example 361, 4-(((S)-1-(4-chloro-8-((R)-1-hydroxyethyl)-1-oxo-2-phenyl-1,2-dihydroisoquinolin-3-yl)ethyl)amino)pyrido[2,3-d]pyrimidin-5(8H)-one], the inhibition at 0.01 µM in assay [1] was found to be 56%; on DNA-PK(h), 48%.
As for `C[C@H](Nc1ncnc2[nH]ccc(=O)c12)c1c(Cl)c2cccc(-c3nnn[nH]3)c2c(=O)n1-c1ccccc1` [Example 352, (S)-4-((1-(4-chloro-1-oxo-2-phenyl-8-(1H-tetrazol-5-yl)-1,2-dihydroisoquinolin-3-yl)ethyl)amino)pyrido[2,3-d]pyrimidin-5(8H)-one], the inhibition at 0.01 µM in assay [1] stood at 27%; at DNA-PK(h) it was 34%. Further, the inhibition at 0.1 µM in assay [1] (compound concentration 0.1 μM) was found to be 75%; on DNA-PK(h) (compound concentration 0.1 μM), 76%.
For `C[C@H](Nc1ncnc2[nH]ccc(=O)c12)c1c(Cl)c2cccc(NC3CCOCC3)c2c(=O)n1-c1ccccc1` [Example 332, (S)-4-((1-(4-chloro-1-oxo-2-phenyl-8-((tetrahydro-2H-pyran-4-yl)amino)-1,2-dihydroisoquinolin-3-yl)ethyl)amino)pyrido[2,3-d]pyrimidin-5(8H)-one], in that order: 30%, -1%, 75% and 33%.
Take `C[C@H](Nc1ncnc2[nH]ccc(=O)c12)c1c(Cl)c2cccc(C3OCC(C)(C)CO3)c2c(=O)n1-c1ccccc1` [Example 358, (S)-4-((1-(4-chloro-8-(5,5-dimethyl-1,3-dioxan-2-yl)-1-oxo-2-phenyl-1,2-dihydroisoquinolin-3-yl)ethyl)amino)pyrido[2,3-d]pyrimidin-5(8H)-one]: the inhibition at 0.01 µM in assay [1] is 37%; on DNA-PK(h), -1%.
Consider `C[C@H](Nc1ncnc2[nH]ccc(=O)c12)c1c(Cl)c2cccc(Sc3ncccn3)c2c(=O)n1-c1ccccc1` [Example 423, (S)-4-((1-(4-chloro-1-oxo-2-phenyl-8-(pyrimidin-2-ylthio)-1,2-dihydroisoquinolin-3-yl)ethyl)amino)pyrido[2,3-d]pyrimidin-5(8H)-one], for which the figures for the inhibition at 0.1 µM (in assay [1] (compound at 0.1 μM); on DNA-PK(h) (compound at 0.1 μM)) were 20% and 22%, respectively.
With `C[C@H](Nc1ncnc2[nH]ccc(=O)c12)c1c(Cl)c2cccc(N3CCC(c4ccccc4)CC3)c2c(=O)n1-c1ccccc1` [Example 336, (S)-4-((1-(4-chloro-1-oxo-2-phenyl-8-(4-phenylpiperidin-1-yl)-1,2-dihydroisoquinolin-3-yl)ethyl)amino)pyrido[2,3-d]pyrimidin-5(8H)-one], the inhibition at 0.01 µM stood at 6% in assay [1] and 7% on DNA-PK(h). Besides, the inhibition at 0.1 µM is 19% in assay [1] (compound concentration 0.1 μM) and 14% on DNA-PK(h) (compound concentration 0.1 μM).
With `Cc1cc(-c2cccc3c(Cl)c([C@H](C)Nc4ncnc5[nH]ccc(=O)c45)n(-c4ccccc4)c(=O)c23)cnc1O` [Example 58, (S)-4-((1-(4-chloro-8-(6-hydroxy-5-methylpyridin-3-yl)-1-oxo-2-phenyl-1,2-dihydroisoquinolin-3-yl)ethyl)amino)pyrido[2,3-d]pyrimidin-5(8H)-one], the inhibition at 0.01 µM in assay [1] is 95%; on DNA-PK(h), 87%.
As to `COC(C)(C)c1ncc(-c2cccc3c(Cl)c([C@H](C)Nc4ncnc5[nH]ccc(=O)c45)n(-c4ccccc4)c(=O)c23)cn1` [Example 405, (S)-4-((1-(4-chloro-8-(2-(2-methoxypropan-2-yl)pyrimidin-5-yl)-1-oxo-2-phenyl-1,2-dihydroisoquinolin-3-yl)ethyl)amino)pyrido[2,3-d]pyrimidin-5(8H)-one], the results for the inhibition at 0.1 µM (in assay [1] (compound at 0.1 μM); at DNA-PK(h) (compound at 0.1 μM)) were 69% and 74%, respectively.

What is called inhibition is the relative decrease from the control value, in per cent.
